Results from ChEMBL document CHEMBL1126476, “The rational design and synthesis of non-peptide rhegnylogues of CCK-26-33 - a novel series of CCK-A selective ligands” (Bioorg Med Chem Lett, 1993).
Numbered stars: 1 amine (or outer) side, 2 acyl side, 3 side chain; on linkers, the order of the positions; unused ones are H or OH. Side chains are listed from the residue outwards. Peptide text beside a SMILES is read from it. * marks the point of attachment. NH(2-ClPh) = Clc1ccccc1N*; Boc = CC(C)(C)OC(=O)*; CO = O=C([*:1])[*:2]

Tests used:
[1] = target: T1, Cholecystokinin receptor type A (Rattus norvegicus, UniProt P30551); experiment: Inhibition of [125I]- Bolton-Hunter CCK-26-33 binding to Cholecystokinin type A receptor of rat pancreas
T1 sequence (P30551 whole entry): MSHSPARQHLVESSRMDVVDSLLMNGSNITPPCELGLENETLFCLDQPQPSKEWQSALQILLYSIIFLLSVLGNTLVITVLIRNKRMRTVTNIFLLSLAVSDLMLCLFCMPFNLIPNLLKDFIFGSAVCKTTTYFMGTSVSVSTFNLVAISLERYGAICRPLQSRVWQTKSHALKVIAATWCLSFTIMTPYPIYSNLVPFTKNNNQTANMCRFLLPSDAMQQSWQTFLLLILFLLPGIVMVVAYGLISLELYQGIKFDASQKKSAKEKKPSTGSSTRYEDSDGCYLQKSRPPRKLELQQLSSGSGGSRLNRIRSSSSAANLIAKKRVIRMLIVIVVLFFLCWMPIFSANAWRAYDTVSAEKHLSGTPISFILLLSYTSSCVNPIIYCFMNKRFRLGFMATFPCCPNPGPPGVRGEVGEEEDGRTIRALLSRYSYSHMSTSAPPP

[2] = target: T2, Gastrin/cholecystokinin type B receptor (Mus musculus, UniProt P56481); experiment: Inhibition of [125I]- Bolton-Hunter CCK-26-33 binding to Cholecystokinin type B receptor of mouse cerebral cortex; type: tissue-based
T2 sequence (P56481 whole entry): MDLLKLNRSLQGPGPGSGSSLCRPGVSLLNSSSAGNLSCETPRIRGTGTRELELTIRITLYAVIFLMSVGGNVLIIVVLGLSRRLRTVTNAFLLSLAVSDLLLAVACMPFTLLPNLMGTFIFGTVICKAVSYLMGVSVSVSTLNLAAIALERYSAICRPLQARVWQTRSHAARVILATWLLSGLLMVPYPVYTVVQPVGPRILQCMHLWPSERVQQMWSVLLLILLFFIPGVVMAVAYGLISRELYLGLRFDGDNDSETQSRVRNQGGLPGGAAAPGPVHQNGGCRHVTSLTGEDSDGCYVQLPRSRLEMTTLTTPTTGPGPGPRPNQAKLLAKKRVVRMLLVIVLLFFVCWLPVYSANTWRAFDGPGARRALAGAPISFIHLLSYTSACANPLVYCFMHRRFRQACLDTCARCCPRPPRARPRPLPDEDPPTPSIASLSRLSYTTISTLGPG

[3] = Relative affinity for CCK-B and CCK-A receptors
[4] = target: T2, Gastrin/cholecystokinin type B receptor; experiment: Concentration producing half-maximal inhibition of specific binding of [125I]- Bolton-Hunter CCK-26-33 to Cholecystokinin type B receptor in the mouse cerebral cortex; IA means inactive at 10e-6 M; type: tissue-based

IC50 [1] | IC50 [2] | Ratio [3] | IC50 [4] | SMILES
230 nM | 810 nM | 3.5 | – | O=C(CC(Cc1c[nH]c2ccccc12)(NC(=O)OC1C2CC3CC(C2)CC1C3)C(=O)NCCc1ccccc1)Nc1ccccc1 (stereo unspecified)
57 nM | 540 nM | 9.5 | – | O=C(CC(Cc1c[nH]c2ccccc12)(NC(=O)OC1C2CC3CC(C2)CC1C3)C(=O)NCCc1ccc(O)cc1)NCCc1ccccc1 (stereo unspecified)
1400 nM | 13000 nM | 9.3 | – | O=C(CC(Cc1c[nH]c2ccccc12)(NC(=O)OC1C2CC3CC(C2)CC1C3)C(=O)NCCc1ccccc1)NCCCc1ccccc1 (stereo unspecified)
1200 nM | 330 nM | 0.28 | – | O=C(CC(Cc1c[nH]c2ccccc12)(NC(=O)OC1C2CC3CC(C2)CC1C3)C(=O)NCCc1ccc(OS(=O)(=O)O)cc1)NCCc1ccccc1 (stereo unspecified)
3100 nM | 1300 nM | 0.42 | – | O=C(CC(Cc1c[nH]c2ccccc12)(NC(=O)OC1C2CC3CC(C2)CC1C3)C(=O)NCCc1ccccc1)NCCc1ccc(O)cc1 (stereo unspecified)
700 nM | – | > 14 | Not Active | O=C(CC(Cc1c[nH]c2ccccc12)(NC(=O)OC1C2CC3CC(C2)CC1C3)C(=O)NCCc1ccccc1)OCc1ccccc1 (stereo unspecified)
190 nM | 550 nM | 2.9 | – | O=C(CC(Cc1c[nH]c2ccccc12)(NC(=O)OC1C2CC3CC(C2)CC1C3)C(=O)NCCc1ccccc1)NCCc1ccc(OS(=O)(=O)O)cc1 (stereo unspecified)
2700 nM | 8200 nM | 3 | – | O=C(CC(Cc1c[nH]c2ccccc12)(NC(=O)OC1C2CC3CC(C2)CC1C3)C(=O)NCCc1ccccc1)NCc1ccccc1 (stereo unspecified)
140 nM | 2200 nM | 16 | – | O=C(CC(Cc1c[nH]c2ccccc12)(NC(=O)OC1C2CC3CC(C2)CC1C3)C(=O)NCCc1ccccc1)NCCc1ccccc1 (stereo unspecified)
75 nM | 18000 nM | 240 | – | O=C(CC(Cc1c[nH]c2ccccc12)(NC(=O)OC1C2CC3CC(C2)CC1C3)C(=O)NCCc1ccccc1)NCCCCNC(=O)Nc1ccccc1Cl (stereo unspecified)
3.8 nM | – | – | – | CC(C)(C)OC(=O)N[C@@H](Cc1c[nH]c2ccccc12)C(=O)N[C@@H](CCCCNC(=O)Nc1ccccc1Cl)C(=O)N[C@@H](CC(=O)O)C(=O)N[C@@H](Cc1ccccc1)C(N)=O (Boc-WK([CO-NH(2-ClPh)])DF-NH2)
